Experiments:
Human GPR120 short form = target: T1, Human GPR120 short form (Homo sapiens, UniProt Q5NUL3); test: Human GPR120 calcium flux assay, Procedure Calcium B (4200 cells/well); assay type: cell-based
T1 construct: expressed in transfected cells
T1 sequence (Q5NUL3 1-361): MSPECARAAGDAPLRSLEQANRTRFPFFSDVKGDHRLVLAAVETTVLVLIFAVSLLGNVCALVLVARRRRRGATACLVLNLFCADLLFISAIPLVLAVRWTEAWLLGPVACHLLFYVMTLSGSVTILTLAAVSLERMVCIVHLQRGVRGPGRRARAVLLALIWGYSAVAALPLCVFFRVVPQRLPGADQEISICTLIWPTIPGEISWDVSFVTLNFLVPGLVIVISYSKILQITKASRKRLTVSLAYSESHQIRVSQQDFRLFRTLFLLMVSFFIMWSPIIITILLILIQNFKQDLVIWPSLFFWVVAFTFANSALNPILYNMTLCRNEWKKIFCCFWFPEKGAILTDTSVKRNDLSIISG
Experimental: Human GPR120 in Calcium Flux Assay
These cells are first loaded with the Ca^+2 sensitive dye, Fluo-4 NW. Upon stimulation, intracellular released Ca^+2 can bind to the dye and alter its fluorescence intensity. This increase in fluorescence signal, and thus the flux in intracellular [Ca^2+], is detected and quantitated by fluorescence imaging using a FLIPR reader. The effect of the agonist is measured as a function of concentration and used to calculate an EC50 based upon a response curve.
In this procedure 4200 cells/well were employed.
A Human GPR120 clone (Genbank accession number NM_001195755.1) was placed into the pcDNA3.1 mammalian expression vector carrying the neomycin resistance gene. A stable mammalian cell was generated by placing the above clone into a HEK293 background. […] Cells were split 2 times a week to keep the cells in the log-phase growth. […]
The assay was performed on a FLIPR plate reader using the following parameters. Baseline was read for 10 seconds at 1 sec intervals. The program was set to transfer 10 μL of ligand from compound plate to cell plate after baseline reading. Aspiration was executed at: 10 μL/sec speed, 4.6 μL height, Dispensing was executed at: 30 μL/sec speed, 45 μL height. After compound addition, each well was read for 300 sec, with measurements collected at 1 sec intervals.
The kinetic data from the FLIPR was based upon a 5 minute window for data collection. The fluorescence of each sample well was used for individual calculations of a normalized RFU value, which was defined as maximum response minus the minimum response. The normalized fluorescence reading (RFU) was calculated as follows: RFU=Fmax−Fmin
The Fitting Equation was: Y=Bottom+(Top-Bottom)/(1+10^((Log EC50−X)*HillSlope)), where X is the log of the concentration and Y is the response.

human GPR40 = target: T2, human GPR40 (Homo sapiens, UniProt O14842); test: GPR40 calcium flux assay, human GPR40; assay type: cell-based; conditions: HEK293 cells stably expressing GPR40; table does not say human or rat
T2 construct: expressed in transfected cells
T2 sequence (O14842 whole entry): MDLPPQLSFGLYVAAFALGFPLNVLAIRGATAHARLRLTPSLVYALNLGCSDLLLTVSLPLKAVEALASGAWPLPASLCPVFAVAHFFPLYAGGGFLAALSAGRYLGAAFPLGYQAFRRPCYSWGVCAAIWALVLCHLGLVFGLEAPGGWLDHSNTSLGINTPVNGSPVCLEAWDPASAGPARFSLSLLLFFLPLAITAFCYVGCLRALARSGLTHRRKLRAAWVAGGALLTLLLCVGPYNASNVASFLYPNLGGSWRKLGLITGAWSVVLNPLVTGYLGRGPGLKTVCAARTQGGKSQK
Experimental: Compounds were tested in a calcium flux assay using transfected HEK293 cells stably expressing either human GPR40 or rat GPR40. Human GPR40 expressing cells were cultured in DMEM−High Glucose media supplemented with 10% fetal bovine serum, 1×L-Glutamine, 1×Penicillin/Streptomycin and 500 μg/mL G418. Rat GPR40 expressing cells were cultured in DMEM−High Glucose media supplemented with 10% fetal bovine serum and 1 μg/mL puromycin. Cells were plated into poly-D-lysine coated 384-well plates and cultured overnight in a 37° C. humidified tissue culture incubator under 5% CO2/[…] atmosphere.
On the day of the experiment, the culture media was replaced with assay buffer (HBSS, 20 mM HEPES, 0.1% BSA) and the cells incubated at 37° C. for 1 h. Calcium-sensitive fluorescent dye (Fluo 8 No-Wash Calcium Dye, ABD Bioquest) was then added and the cells incubated for another 30 min at 37° C. followed by 15 min at room temperature while protected from the light. The cell plate and a plate of diluted compounds of Formula (I) were loaded into a fluorescent plate reader that added compounds onto the cells while measuring the fluorescence intensity of each well. The plate reader recorded fluorescence intensity at 1 second intervals for 8 min and provided the data for analysis in an Excel format. EC50 values were calculated using Prism (GraphPad) software.

SMILES	EC50 (Human GPR120 short form)	EC50 (human GPR40)
O=C(O)CCc1ccc(OCC2=C(C3CCC3)CC(F)(F)C2)cc1C(F)(F)F [Compound 382, 3-[4-[(2-cyclobutyl-4,4-difluoro-cyclopenten-1-yl)methoxy]-2-(trifluoromethyl)phenyl]Propanoic Acid]	0.635 µM	0.046 µM
CC1CCC(c2ccccc2)=C1COc1ccc(CCC(=O)O)c(Cl)c1 (centres unmarked) [Compound 334, 3-[2-chloro-4-[(5-methyl-2-phenyl-cyclopenten-1-yl)methoxy]phenyl]Propanoic Acid]	1.73 µM	2.13 µM
O=C(O)CCc1ccc(OCC2=C(c3ccc(Br)cc3)CCC2)cc1Cl [Compound 276, 3-[4-[[2-(4-bromophenyl)cyclopenten-1-yl]methoxy]-2-chloro-phenyl]Propanoic Acid]	0.427 µM	0.193 µM
O=C(O)CCc1ccc(OCC2=C(C3(F)CCC3)CC(F)(F)C2)cc1C(F)(F)F [Compound 429, 3-[4-[[4,4-difluoro-2-(1-fluorocyclobutyl)cyclopenten-1-yl]methoxy]-2-(trifluoromethyl)phenyl]Propanoic Acid]	0.844 µM	0.089 µM
Cc1cc(OCC2=C(Cc3ccc(Cl)cc3)CCC2)c(F)cc1CCC(=O)O [Compound 360, 3-[4-[[2-[(4-chlorophenyl)methyl]cyclopenten-1-yl]methoxy]-5-fluoro-2-methyl-phenyl]Propanoic Acid]	> 5 µM	0.972 µM
O=C(O)CCc1ccc(OCC2=C(C3CCCC3)CCC2)cc1Cl [Compound 428, 3-[2-chloro-4-[(2-cyclopentylcyclopenten-1-yl)methoxy]phenyl]Propanoic Acid]	0.256 µM	0.048 µM
Cc1c(CCC(=O)O)ccc(OCC2=C(c3ccc(Cl)cc3)CCC2=O)c1C [Compound 145, 3-[4-[[2-(4-chlorophenyl)-5-oxo-cyclopenten-1-yl]methoxy]-2,3-dimethyl-phenyl]Propanoic Acid]	2 µM	> 5 µM
O=C(O)CCc1ccc(OCC2=C(CCc3ccccc3)CCC2)cc1C(F)(F)F [Compound 372, 3-[4-[(2-phenethylcyclopenten-1-yl)methoxy]-2-(trifluoromethyl)phenyl]Propanoic Acid]	2.35 µM	0.197 µM
COC1CCC(c2ccccc2C)=C(COc2ccc(CCC(=O)O)c(C(F)(F)F)c2)C1 (centres unmarked) [Compound 576, 3-[4-[[5-methoxy-2-(o-tolyl)cyclohexen-1-yl]methoxy]-2-(trifluoromethyl)phenyl]Propanoic Acid]	> 5 µM	1.57 µM
O=C(O)CCc1ccc(OCC2=C(c3ccccc3)CCC2)cc1Cl [Compound 259, 3-[2-chloro-4-[(2-phenylcyclopenten-1-yl)methoxy]phenyl]Propanoic Acid]	1.22 µM	1.57 µM
Cc1ccc(C2=C(COc3ccc(CCC(=O)O)cc3)CCC2)c(C)c1 [Compound 245, 3-[4-[[2-(2,4-dimethylphenyl)cyclopenten-1-yl]methoxy]phenyl]Propanoic Acid]	2 µM	1.91 µM
O=C(O)CCc1ccc(OCC2=C(C3=CCCCC3)CCC2)cc1 [Compound 230, 3-[4-[[2-(cyclohexen-1-yl)cyclopenten-1-yl]methoxy]phenyl]Propanoic Acid]	1.87 µM	> 5 µM
Cc1cc(CCC(=O)O)cc(Cl)c1OCC1=C(c2ccc(F)cc2)CCC1 [Compound 236, 3-[3-chloro-4-[[2-(4-fluorophenyl)cyclopenten-1-yl]methoxy]-5-methyl-phenyl]Propanoic Acid]	1.27 µM	> 5 µM
O=C(O)CCc1ccc(OCC2=C(C3CCCC3)CCC2)cc1F [Compound 426, 3-[4-[(2-cyclopentylcyclopenten-1-yl)methoxy]-2-fluoro-phenyl]Propanoic Acid]	0.2 µM	0.082 µM
COc1cc(C2=C(COc3ccc(CCC(=O)O)cc3)CCC2)ccc1C [Compound 261]	1.54 µM	1.62 µM
Cc1c(CCC(=O)O)ccc(OCC2=C(C3CCCC3)CCC2)c1C [Compound 432, 3-[4-[(2-cyclopentylcyclopenten-1-yl)methoxy]-2,3-dimethyl-phenyl]Propanoic Acid]	0.044 µM	> 10 µM
Cc1cc(CCC(=O)O)ccc1OCC1=C(c2ccco2)CC(F)(F)C1 [Compound 232, 3-[4-[[4,4-difluoro-2-(2-furyl)cyclopenten-1-yl]methoxy]-3-methyl-phenyl]Propanoic Acid]	> 5 µM	> 5 µM
Cc1cc(OCC2=C(c3ccc(Cl)cc3)CCC2C)c(F)cc1CCC(=O)O (centres unmarked) [Compound 333, 3-[4-[[2-(4-chlorophenyl)-5-methyl-cyclopenten-1-yl]methoxy]-5-fluoro-2-methyl-phenyl]Propanoic Acid]	0.427 µM	1.01 µM
Cc1ccc(C2=C(COc3cc(C)c(CCC(=O)O)cc3F)CCC2)cc1 [Compound 326, 3-[5-fluoro-2-methyl-4-[[2-(p-tolyl)cyclopenten-1-yl]methoxy]phenyl]Propanoic Acid]	0.157 µM	4.78 µM
O=C(O)CCc1ccc(OCC2=C(C3CCCC3)CCC2)cc1C1CC1 [Compound 444, 3-[4-[(2-cyclopentylcyclopenten-1-yl)methoxy]-2-cyclopropyl-phenyl]Propanoic Acid]	0.319 µM	0.174 µM
O=C(O)CCc1ccc(OCC2=C(Cc3ccccc3)CC(F)(F)C2)cc1C(F)(F)F [Compound 358, 3-[4-[(2-benzyl-4,4-difluoro-cyclopenten-1-yl)methoxy]-2-(trifluoromethyl)phenyl]Propanoic Acid]	0.951 µM	0.065 µM
O=C(O)CCc1cc(F)c(OCC2=C(C3CCC(F)(F)CC3)CCC2)c(F)c1 [Compound 419, 3-[4-[[2-(4,4-difluorocyclohexyl)cyclopenten-1-yl]methoxy]-3,5-difluoro-phenyl]Propanoic Acid]	3.17 µM	> 10 µM
O=C(O)CCc1ccc(OCC2=C(c3ccc(Br)cc3)CC(F)(F)C2)cc1Cl [Compound 393, 3-[4-[[2-(4-bromophenyl)-4,4-difluoro-cyclopenten-1-yl]methoxy]-2-chloro-phenyl]Propanoic Acid]	0.291 µM	0.42 µM
Cc1c(CCC(=O)O)ccc(OCC2=C(C3=CCOCC3)CCC2)c1C [Compound 239, 3-[4-[[2-(3,6-dihydro-2H-pyran-4-yl)cyclopenten-1-yl]methoxy]-2,3-dimethyl-phenyl]Propanoic Acid]	0.403 µM	> 5 µM
O=C(O)CCc1ccc(OCC2=C(C3CC4CCC3C4)CCCC2)cc1C(F)(F)F (centres unmarked) [Compound 592, 3-[4-[(2-norbornan-2-ylcyclohexen-1-yl)methoxy]-2-(trifluoromethyl)phenyl]Propanoic Acid]	> 5 µM	1.55 µM
O=C(O)CCc1ccc(OCC2=C(Cc3ccccc3)CCC2)cc1 [Compound 322, 3-[4-[(2-benzylcyclopenten-1-yl)methoxy]phenyl]Propanoic Acid]	1.14 µM	0.328 µM
Cc1ccc(C2=C(COc3cc(C)c(CCC(=O)O)cc3F)CCC2)cc1F [Compound 264, 3-[5-fluoro-4-[[2-(3-fluoro-4-methyl-phenyl)cyclopenten-1-yl]methoxy]-2-methyl-phenyl]Propanoic Acid]	0.103 µM	1.59 µM
Cc1cc(OCC2=C(c3ccccc3Cl)CCC2)c(F)cc1CCC(=O)O [Compound 265, 3-[4-[[2-(2-chlorophenyl)cyclopenten-1-yl]methoxy]-5-fluoro-2-methyl-phenyl]Propanoic Acid]	1.21 µM	1.14 µM

— patent US11230526B1, “Cylcoalkenyl derivatives useful as agonists of the GPR120 and/or GPR40 receptors” (Janssen Pharmaceutica NV, priority 2018, dated 2022)
